The record followed here is ChEMBL document CHEMBL4421717, “Antagonists and agonists of bitter taste receptors and uses thereof” (2012).

The structures appear in SMILES notation. Active and inactive are the calls of the source. The rule behind the calls is not given here.

Common to all, as to type: functional, cell-based
The target of test [1] is T1, Taste receptor type 2 member 46 (Homo sapiens, UniProt P59540).
T1 sequence (P59540 whole entry): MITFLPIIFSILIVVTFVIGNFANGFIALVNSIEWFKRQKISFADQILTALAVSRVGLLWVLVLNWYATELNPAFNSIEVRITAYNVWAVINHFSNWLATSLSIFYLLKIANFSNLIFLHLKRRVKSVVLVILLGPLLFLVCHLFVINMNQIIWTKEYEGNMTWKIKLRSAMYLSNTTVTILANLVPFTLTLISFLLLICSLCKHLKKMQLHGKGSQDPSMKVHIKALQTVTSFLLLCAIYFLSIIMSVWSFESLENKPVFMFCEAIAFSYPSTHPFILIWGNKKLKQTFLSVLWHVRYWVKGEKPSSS
Kind of test: Antagonist activity at recombinant human N-terminal rat ST3 receptor-fused TAS2R46 expressed in HEK293T cells co-expressing Galpha16gust44 assessed as inhibition of 3 uM strychnine-induced intracellular calcium level 100 uM by FLIPR assay. (Calcium flux is commonly read through the fluorescence of an indicator in the cells.)

Test [2] has as its target T2, Taste receptor type 2 member 10 (Homo sapiens) (UniProt Q9NYW0).
T2 sequence (whole entry): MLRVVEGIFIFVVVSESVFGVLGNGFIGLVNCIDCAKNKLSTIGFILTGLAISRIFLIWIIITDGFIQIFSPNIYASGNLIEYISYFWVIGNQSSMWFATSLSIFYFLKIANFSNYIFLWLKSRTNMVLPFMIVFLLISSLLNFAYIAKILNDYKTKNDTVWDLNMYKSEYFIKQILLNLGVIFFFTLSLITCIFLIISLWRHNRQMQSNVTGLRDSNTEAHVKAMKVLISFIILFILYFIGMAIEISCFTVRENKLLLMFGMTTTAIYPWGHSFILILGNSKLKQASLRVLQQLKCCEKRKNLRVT
Kind of test: Agonist activity at recombinant human N-terminal rat ST3 receptor-fused TAS2R10 expressed in HEK293T cells co-expressing Galpha16gust44 assessed as effect on intracellular calcium level at 100 uM by FLIPR assay.

For test [3], the target named is T3, Taste receptor type 2 member 46 (Homo sapiens) (UniProt P59540).
T3 sequence (whole entry): T1 sequence (P59540 whole entry)
The experiment in a line: Antagonist activity at recombinant human N-terminal rat ST3 receptor-fused TAS2R46 expressed in HEK293T cells co-expressing Galpha16gust44 assessed as inhibition of picrotoxinin-induced intracellular calcium level at 100 uM by FLIPR assay.

For test [4], the target named is T4, Taste receptor type 2 member 14 (Homo sapiens) (UniProt Q9NYV8).
T4 sequence (whole entry): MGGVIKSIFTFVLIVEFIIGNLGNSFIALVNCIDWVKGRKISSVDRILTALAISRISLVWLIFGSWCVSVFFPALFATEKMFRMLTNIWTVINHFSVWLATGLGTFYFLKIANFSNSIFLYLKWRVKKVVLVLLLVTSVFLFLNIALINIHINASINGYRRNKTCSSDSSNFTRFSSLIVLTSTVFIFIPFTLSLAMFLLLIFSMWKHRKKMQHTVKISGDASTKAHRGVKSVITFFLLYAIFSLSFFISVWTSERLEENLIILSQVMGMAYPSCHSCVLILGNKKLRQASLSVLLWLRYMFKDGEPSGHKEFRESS
The experiment in a line: Agonist activity at recombinant human N-terminal rat ST3 receptor-fused TAS2R14 expressed in HEK293T cells co-expressing Galpha16gust44 assessed as effect on intracellular calcium level at 100 uM by FLIPR assay.

Test [5] has as its target T3, Taste receptor type 2 member 46 (Homo sapiens). Kind of test: Agonist activity at recombinant human N-terminal rat ST3 receptor-fused TAS2R46 expressed in HEK293T cells co-expressing Galpha16gust44 assessed as effect on intracellular calcium level at 100 uM by FLIPR assay.
For test [6], the target named is T2, Taste receptor type 2 member 10 (Homo sapiens). Kind of test: Activity at recombinant human N-terminal rat ST3 receptor-fused TAS2R10 expressed in HEK293T cells co-expressing Galpha16gust44 assessed as effect on strychnine-induced intracellular calcium level at 100 uM by FLIPR assay.
The target of test [7] is T5, Taste receptor type 2 member 16 (Homo sapiens) (UniProt Q9NYV7).
T5 sequence (whole entry): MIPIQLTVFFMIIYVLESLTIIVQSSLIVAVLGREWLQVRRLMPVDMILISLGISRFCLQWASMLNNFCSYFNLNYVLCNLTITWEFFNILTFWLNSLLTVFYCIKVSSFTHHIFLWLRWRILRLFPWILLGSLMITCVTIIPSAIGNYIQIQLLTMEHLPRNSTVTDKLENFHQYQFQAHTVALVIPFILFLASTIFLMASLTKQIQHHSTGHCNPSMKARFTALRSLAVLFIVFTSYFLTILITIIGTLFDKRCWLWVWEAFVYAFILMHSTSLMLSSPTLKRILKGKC
The experiment in a line: Activity at recombinant human N-terminal rat ST3 receptor-fused TAS2R16 expressed in HEK293T cells co-expressing Galpha16gust44 assessed as effect on D-salicin-induced intracellular calcium level at 100 uM by FLIPR assay.

For test [8], the target named is T6, Taste receptor type 2 member 13 (Homo sapiens) (UniProt Q9NYV9).
T6 sequence (whole entry): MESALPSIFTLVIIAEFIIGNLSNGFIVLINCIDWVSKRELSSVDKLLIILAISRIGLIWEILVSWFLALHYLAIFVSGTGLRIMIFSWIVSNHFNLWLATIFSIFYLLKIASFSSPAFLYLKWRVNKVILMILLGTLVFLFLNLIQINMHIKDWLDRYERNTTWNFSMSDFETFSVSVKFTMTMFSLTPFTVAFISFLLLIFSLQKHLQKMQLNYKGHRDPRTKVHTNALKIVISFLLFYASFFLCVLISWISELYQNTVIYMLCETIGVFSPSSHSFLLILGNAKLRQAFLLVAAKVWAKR
The experiment in a line: Activity at recombinant human N-terminal rat ST3 receptor-fused TAS2R13 expressed in HEK293T cells co-expressing Galpha16gust44 assessed as effect on denatonium benzoate-induced intracellular calcium level at 100 uM by FLIPR assay.

Test [9] addresses T7, Taste receptor type 2 member 9 (Homo sapiens) (UniProt Q9NYW1).
T7 sequence (whole entry): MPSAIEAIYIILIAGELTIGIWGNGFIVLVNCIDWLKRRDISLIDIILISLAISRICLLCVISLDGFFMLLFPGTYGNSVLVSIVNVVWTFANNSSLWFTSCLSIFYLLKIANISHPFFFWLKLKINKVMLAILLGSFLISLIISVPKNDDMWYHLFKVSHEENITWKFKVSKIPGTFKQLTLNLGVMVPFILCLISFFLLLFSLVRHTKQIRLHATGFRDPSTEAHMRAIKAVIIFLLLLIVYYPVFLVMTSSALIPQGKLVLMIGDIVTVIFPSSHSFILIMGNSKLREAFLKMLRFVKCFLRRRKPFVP
The experiment in a line: Activity at recombinant human N-terminal rat ST3 receptor-fused TAS2R9 expressed in HEK293T cells co-expressing Galpha16gust44 assessed as effect on ofloxacin-induced intracellular calcium level at 100 uM by FLIPR assay.

As usually defined, the IC50 is the point on the concentration scale where inhibition reaches its midpoint. Regarding `C/C1=C\C[C@H](O)[C@@H](C)C[C@H]2OC(=O)[C@@H](C)C2CC1` (stereo partly drawn), the half-maximal inhibitory concentration (IC50) in test [1] is 84.9 µM. Further, the result in test [2], in [4] and in test [5] was Active. Besides, the inhibition entry in [3] was “Active”. The result in test [6], in [7], in test [8] and in test [9] was inactive.
As for `C/C1=C\C[C@H](O)/C(C)=C/[C@H]2OC(=O)[C@@H](C)C2CC1` (stereo partly drawn), the IC50 in test [1] worked out at 15.3 µM. Also, the result in test [2] and in [4] was Active. The inhibition result in test [3] is “Active”. Besides, the result in test [5], in [6], in test [7], in [8] and in test [9] was inactive.
